Source: ChEMBL document CHEMBL1201862, “PubChem BioAssay data set” (2004)
The source made the active and inactive calls.

Experiments:
[1] = MIN6 cell viability loss – mouse insulinoma, cytotoxicity control, dose response (AID 2122); assay type: functional;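 note: confirmatory high-throughput counterscreen run to flag cytotoxic compounds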
[2] = Trypanosoma cruzi growth suppression in host cells – NIH3T3 host cells, beta-gal luminescence, confirmation (AID 2044); assay type: functional, cell-based;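 note: intracellular parasites grown in NIH/3T3 mouse fibroblasts as host cells; luminescent beta-galactosidase reporter signal from transgenic T. cruzi replicating inside host cells; inhibitors lower the luminescence signal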
[3] = decrease of insulin promoter-GFP reporter – imaging, high-content screening, mouse beta cells (AID 1628); assay type: functional; conditions: MIN6
[4] = NIH3T3 cell viability loss – ATP luminescence, mouse fibroblasts, counter-screen, dose response (AID 2010); assay type: functional, cell-based;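 note: cells exposed to compound for about 90 hours before reading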
[5] = luciferase reporter signal suppression in cells – H4 neuroglioma cells, luminescence, dose response (AID 1990); assay type: functional, cell-based
[6] = Luminescence Cell-Based Dose Response HTS to Identify Inhibitors of 5'UTR Stem-Loop Driven Prion Protein mRNA Translation in H4 Neuroglioblastoma Cells. [Related pubchem assays: 1827 (Project Summary), 1813 (Primary HTS)]; assay type: functional
[7] = alpha-synuclein stem-loop luciferase translation blockers – H4 neuroglioma cells, luminescence, confirmation (AID 1988); assay type: functional, cell-based
[8] = system: HEK293; assay: EBV LMP1 TES2 canonical NF-kB signalling blockers – cell-based, HEK293, luciferase, cherry-pick, dose response (AID 588343); assay type: functional; conditions: Homo sapiens
[9] = microbe, parasite or virus in culture; assay type: functional; conditions: Mycobacterium tuberculosis
[10] = target: T1, Ubiquitin-conjugating enzyme E2 N (Homo sapiens, UniProt P61088); assay type: functional;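 note: Dose-response confirmation in a TR-FRET assay detecting UBC13-driven polyubiquitin chain formation, inhibition measured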
T1 sequence (P61088 whole entry): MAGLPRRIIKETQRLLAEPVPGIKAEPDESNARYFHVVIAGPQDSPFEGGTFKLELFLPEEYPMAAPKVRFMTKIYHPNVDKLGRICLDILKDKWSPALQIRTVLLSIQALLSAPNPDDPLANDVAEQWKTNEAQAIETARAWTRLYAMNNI

[11] = system: Escherichia coli; assay: microbe, parasite or virus in culture
[12] = target: T2, Orexin receptor type 2 (Homo sapiens, UniProt O43614); assay: Counterscreen assay for antagonists of the orexin 1 receptor (OX1R; HCRTR1): Homogeneous Time Resolved Fluorescence (HTRF)-based cell-based dose response assay for antagonists of the orexin 2 receptor (OX2R; HCRTR2), run by assay provider.; assay type: functional
T2 sequence (O43614 whole entry): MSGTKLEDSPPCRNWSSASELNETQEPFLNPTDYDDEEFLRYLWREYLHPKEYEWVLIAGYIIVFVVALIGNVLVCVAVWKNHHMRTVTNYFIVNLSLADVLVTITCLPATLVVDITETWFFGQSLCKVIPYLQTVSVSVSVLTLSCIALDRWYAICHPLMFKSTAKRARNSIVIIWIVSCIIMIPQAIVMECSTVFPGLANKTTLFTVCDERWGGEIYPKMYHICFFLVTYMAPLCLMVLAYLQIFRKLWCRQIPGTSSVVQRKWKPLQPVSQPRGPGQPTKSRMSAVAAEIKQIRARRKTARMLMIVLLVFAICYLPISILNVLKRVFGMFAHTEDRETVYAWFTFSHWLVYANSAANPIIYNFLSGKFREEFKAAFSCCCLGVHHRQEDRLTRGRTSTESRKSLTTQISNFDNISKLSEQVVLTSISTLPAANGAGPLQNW

[13] = target: T3, Orexin/Hypocretin receptor type 1 (Homo sapiens, UniProt O43613); assay: Homogeneous Time Resolved Fluorescence (HTRF)-based cell-based high throughput dose response assay for antagonists of the orexin 1 receptor (OX1R; HCRTR1). [Related pubchem assays (depositor defined):AID434989, AID435008, AID463079, AID485270, AID492963, AID492964, AID492965, AID493232, AID504717, AID504718]; assay type: functional
T3 sequence (O43613 whole entry): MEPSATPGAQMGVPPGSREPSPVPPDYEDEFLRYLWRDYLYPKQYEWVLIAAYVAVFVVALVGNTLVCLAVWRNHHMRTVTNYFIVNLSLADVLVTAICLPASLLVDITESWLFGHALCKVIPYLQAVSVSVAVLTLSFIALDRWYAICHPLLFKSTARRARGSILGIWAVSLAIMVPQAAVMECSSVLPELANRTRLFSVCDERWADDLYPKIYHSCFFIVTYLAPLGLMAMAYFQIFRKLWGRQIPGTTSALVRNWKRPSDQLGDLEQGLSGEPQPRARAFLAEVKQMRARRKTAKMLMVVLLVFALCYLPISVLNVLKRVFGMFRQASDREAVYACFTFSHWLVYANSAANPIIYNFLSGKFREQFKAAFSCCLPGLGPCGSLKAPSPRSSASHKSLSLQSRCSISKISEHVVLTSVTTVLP

[14] = (§1) Counterscreen for antagonists of the orexin 1 receptor (OX1R; HCRTR1): Fluorescence-based cell-based high throughput dose response assay to identify antagonists of the parental CHO cell line. [Related pubchem assays (depositor defined):AID434989, AID435008, AID463079, AID485270, AID492963, AID492964, AID492965, AID493232, AID504699, AID504701]; assay type: functional
[15] = system: CHO-K1; assay: as §1, with “Homogeneous time resolved fluorescence (HTRF)-based” for “Fluorescence-based”, “cell-based” for “cell-based high throughput”, “CHO-K1” for “CHO”; assay type: functional; conditions: Cricetulus griseus;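 note: potency for inhibition of ATP-stimulated IP1 production as antagonists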
[16] = target: T2, Orexin receptor type 2; assay: Counterscreen assay for antagonists of the orexin 1 receptor (OX1R; HCRTR1): Fluorescence-based cell-based dose response assay for antagonists of the orexin 2 receptor (OX2R; HCRTR2), run by assay provider.; assay type: functional
[17] = target: T3, Orexin/Hypocretin receptor type 1; assay: Fluorescence-based cell-based high throughput dose response assay for antagonists of the orexin 1 receptor (OX1R; HCRTR1). [Related pubchem assays (depositor defined):AID434989, AID435008, AID463079, AID485270, AID492963, AID492964, AID492965, AID493232, AID504717, AID504718]; assay type: functional
[18] = target: T4, Short transient receptor potential channel 4 (Mus musculus, UniProt Q9QUQ5); assay: calcium entry via TRPC4 opening agents – cell-based, HEK293 TRPC4/mu-opioid, Fluo-4 calcium, dose response (AID 434937); assay type: functional
T4 sequence (Q9QUQ5 whole entry): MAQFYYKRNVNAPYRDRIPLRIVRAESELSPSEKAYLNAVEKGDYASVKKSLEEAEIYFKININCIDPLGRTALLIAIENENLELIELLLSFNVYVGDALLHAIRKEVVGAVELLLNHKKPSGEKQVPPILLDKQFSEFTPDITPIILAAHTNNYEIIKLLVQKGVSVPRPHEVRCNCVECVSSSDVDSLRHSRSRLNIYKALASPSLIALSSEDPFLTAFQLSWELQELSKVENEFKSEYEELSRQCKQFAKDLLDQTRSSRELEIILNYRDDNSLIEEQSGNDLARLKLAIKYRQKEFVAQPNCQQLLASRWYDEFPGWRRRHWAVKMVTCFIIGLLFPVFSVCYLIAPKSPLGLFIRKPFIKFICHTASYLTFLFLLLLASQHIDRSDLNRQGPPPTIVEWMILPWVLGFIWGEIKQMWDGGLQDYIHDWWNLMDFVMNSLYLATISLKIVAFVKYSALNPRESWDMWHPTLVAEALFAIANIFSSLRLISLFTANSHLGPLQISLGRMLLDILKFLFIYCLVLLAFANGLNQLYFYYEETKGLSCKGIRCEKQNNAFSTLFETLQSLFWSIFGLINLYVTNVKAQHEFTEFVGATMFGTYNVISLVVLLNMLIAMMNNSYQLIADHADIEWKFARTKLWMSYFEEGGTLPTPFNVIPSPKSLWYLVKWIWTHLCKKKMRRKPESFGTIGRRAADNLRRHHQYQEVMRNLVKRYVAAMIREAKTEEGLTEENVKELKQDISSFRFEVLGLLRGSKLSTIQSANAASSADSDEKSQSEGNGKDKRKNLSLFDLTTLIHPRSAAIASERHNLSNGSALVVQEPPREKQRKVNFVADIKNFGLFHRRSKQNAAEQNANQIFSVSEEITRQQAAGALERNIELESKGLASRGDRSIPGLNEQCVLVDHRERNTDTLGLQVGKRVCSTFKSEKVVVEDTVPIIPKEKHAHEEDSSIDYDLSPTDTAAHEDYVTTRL

[19] = target: T4, Short transient receptor potential channel 4; assay: block of DAMGO-driven TRPC4 calcium entry – cell-based, HEK293 TRPC4/mu-opioid, Fluo-4 calcium, dose response (AID 434942); assay type: functional;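 note: potency of inhibitors blocking the TRPC4 calcium response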
[20] = NIH-3T3 fibroblast cytotoxicity, dose response, cytotoxicity control, cell-based, fluorescence, Alamar Blue, secondary assay (AID 2327); assay type: functional;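 note: NIH-3T3 mouse fibroblasts cultured with fluconazole at 8 µg/mL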
[21] = fluconazole-exposed Candida albicans growth modulators – fluorescence, retest, confirmation (AID 2467); assay type: functional, cell-based
[22] = target: T5, Serine/threonine-protein phosphatase (Candida dubliniensis (strain CD36 / CBS 7987 / NCPF 3949 / NRRLY-17841) (Yeast), UniProt B9W6M3); assay: blockers of CaCl2-induced CDRE-lacZ signaling – S. cerevisiae, luminescence, secondary, dose response (AID 2388); assay type: functional, cell-based;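 note: yeast reporter cells carrying a calcineurin-responsive lacZ construct stimulated with calcium chloride; luminescent beta-galactosidase reporter signal in whole cells rather than isolated phosphatase activity; potency for inhibition where a drop in reporter signal means calcineurin blockade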
T5 sequence (B9W6M3 whole entry): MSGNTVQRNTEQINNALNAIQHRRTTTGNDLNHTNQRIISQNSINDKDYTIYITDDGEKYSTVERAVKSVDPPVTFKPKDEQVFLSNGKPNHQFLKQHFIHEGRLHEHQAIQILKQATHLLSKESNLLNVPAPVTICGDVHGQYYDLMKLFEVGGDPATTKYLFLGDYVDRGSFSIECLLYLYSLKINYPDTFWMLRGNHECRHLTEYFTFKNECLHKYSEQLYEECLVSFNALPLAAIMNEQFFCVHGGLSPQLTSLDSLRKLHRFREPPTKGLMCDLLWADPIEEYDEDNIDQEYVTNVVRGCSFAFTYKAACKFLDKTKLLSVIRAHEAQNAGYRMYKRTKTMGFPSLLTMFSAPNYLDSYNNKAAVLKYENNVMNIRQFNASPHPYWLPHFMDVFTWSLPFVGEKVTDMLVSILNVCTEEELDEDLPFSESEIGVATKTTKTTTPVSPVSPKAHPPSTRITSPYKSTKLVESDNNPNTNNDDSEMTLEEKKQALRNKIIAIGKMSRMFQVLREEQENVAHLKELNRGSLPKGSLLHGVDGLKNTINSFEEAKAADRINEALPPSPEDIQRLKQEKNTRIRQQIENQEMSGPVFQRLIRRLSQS

[23] = target: ATP-dependent molecular chaperone HSP82 (Candida albicans (strain WO-1) (Yeast), UniProt C4YTQ8); assay: steroid-induced GRE reporter decrease in yeast – S. cerevisiae, luminescence, Hsp90 inhibitor project, dose response (AID 2400); assay type: functional, cell-based;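 note: beta-galactosidase luminescence from glucocorticoid response element reporter as proxy for Hsp90 function; inhibitor potency where signal loss means Hsp90 inhibition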
ATP-dependent molecular chaperone HSP82, sequence (C4YTQ8 whole entry): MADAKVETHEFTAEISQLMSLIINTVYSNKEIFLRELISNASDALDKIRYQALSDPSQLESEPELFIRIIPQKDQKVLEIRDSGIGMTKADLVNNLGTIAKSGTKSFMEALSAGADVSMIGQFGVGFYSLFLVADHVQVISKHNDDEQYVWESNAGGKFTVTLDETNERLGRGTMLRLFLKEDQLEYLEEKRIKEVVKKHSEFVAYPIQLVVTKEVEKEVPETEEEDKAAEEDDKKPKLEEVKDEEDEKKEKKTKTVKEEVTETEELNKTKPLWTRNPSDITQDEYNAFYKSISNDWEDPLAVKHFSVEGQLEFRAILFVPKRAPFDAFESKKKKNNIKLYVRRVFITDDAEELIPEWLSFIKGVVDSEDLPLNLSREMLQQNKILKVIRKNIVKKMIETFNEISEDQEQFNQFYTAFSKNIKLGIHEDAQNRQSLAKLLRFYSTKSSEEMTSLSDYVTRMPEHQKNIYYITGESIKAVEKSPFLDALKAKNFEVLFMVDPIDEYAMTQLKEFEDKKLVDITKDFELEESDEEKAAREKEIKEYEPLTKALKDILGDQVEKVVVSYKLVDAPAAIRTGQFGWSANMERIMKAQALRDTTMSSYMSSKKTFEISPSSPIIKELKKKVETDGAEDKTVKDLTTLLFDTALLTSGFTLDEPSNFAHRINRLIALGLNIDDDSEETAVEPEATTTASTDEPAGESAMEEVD

[24] = target: T6, Calpain-2 catalytic subunit (Sus scrofa, UniProt P43367); assay: m-calpain protease blockers, concentration series – biochemical, fluorogenic peptide substrate, dose response (AID 1420); assay type: functional
T6 sequence (P43367 whole entry): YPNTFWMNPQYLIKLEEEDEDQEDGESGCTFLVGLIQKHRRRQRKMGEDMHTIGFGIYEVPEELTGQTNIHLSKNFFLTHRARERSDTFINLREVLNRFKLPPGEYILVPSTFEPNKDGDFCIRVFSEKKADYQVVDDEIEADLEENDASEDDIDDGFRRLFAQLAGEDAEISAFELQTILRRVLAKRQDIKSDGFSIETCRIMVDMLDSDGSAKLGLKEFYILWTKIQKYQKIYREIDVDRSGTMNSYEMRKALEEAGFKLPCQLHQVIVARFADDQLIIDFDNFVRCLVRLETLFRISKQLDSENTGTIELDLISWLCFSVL

[25] = target: Glucose-6-phosphate 1-dehydrogenase (Homo sapiens, UniProt P11413); assay: inhibition of Homo sapiens G6PD, dose series – biochemical, fluorescence, selectivity assay for P. falciparum G6PD inhibitor project, dose response (AID 504792); assay type: functional
Glucose-6-phosphate 1-dehydrogenase, sequence (P11413 whole entry): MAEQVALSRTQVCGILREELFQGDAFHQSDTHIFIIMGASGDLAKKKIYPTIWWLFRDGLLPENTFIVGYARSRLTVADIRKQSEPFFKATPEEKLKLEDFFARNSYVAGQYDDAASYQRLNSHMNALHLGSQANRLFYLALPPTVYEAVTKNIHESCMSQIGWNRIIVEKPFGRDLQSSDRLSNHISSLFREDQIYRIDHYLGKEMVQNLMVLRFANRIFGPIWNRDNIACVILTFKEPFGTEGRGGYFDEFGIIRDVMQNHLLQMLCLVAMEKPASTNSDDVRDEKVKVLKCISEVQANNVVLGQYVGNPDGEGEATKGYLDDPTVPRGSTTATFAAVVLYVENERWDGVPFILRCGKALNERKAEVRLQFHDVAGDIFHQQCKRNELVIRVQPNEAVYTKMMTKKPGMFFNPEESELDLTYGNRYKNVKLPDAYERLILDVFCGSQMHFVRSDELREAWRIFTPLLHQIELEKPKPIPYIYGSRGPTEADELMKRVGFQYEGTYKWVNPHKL

For `COc1cccc(CNC(=O)CN2CCC(c3nc4cc(C)ccc4[nH]3)CC2)c1`, the IC50 [1] was 15 µM (inactive), the EC50 [2] was 0.217 µM (active) and the IC50 [3] was 2 µM (active). The EC50 [4] was > 60 µM (not active).
With `Oc1c2c(nc3c(-c4cccc(Br)c4)cnn13)CCCC2` the EC50 [5] was 11.2 µM (active), the EC50 [6] was 8.39 µM (active) and the EC50 [7] was 9.2 µM (active). The AC50 [8] was 4.49 µM (active).
With `COC(=O)c1c(N=C(S)NN2CCN(C)CC2)sc2c1CCC(C)C2` (configuration not stated) the IC50 [1] was 3.07 µM (active), the IC50 [3] was 4.04 µM (active) and the CC50 [9] was 11.6 µM (active). The IC50 [10] was > 20 µM (inactive).
In the case of `COc1ccc(Nc2nc(NCCO)nc(OC)n2)cc1`, the AC50 [11] is reported as 25.5 µM (active).
In the case of `COCCCNC(=O)CCC(=O)NNc1nc2ccccc2c2nc(-c3ccccc3)nn12`, the IC50 [12] is reported as > 50 µM (inactive), the IC50 [13] is reported as 3.55 µM (active) and the IC50 [14] is reported as > 49.7 µM (inactive). For the same compound, the IC50 [15] was > 66.2 µM (inactive), the IC50 [16] was > 88.8 µM (inactive) and the IC50 [17] was 11.7 µM (inactive).
For `CCCN1CCN(C(=O)Cn2c(=O)oc3cc(S(=O)(=O)NCc4ccccc4)ccc32)CC1`, the EC50 [18] was 4.22 µM (active).
With `CN(C)C(CNC(=O)c1ccc2c(c1)S(=O)(=O)c1ccccc1C2=O)c1ccco1` (configuration not stated) the EC50 [18] was 0.668 µM (active) and the EC50 [19] was 4.73 µM (active).
For `Cc1ccc(NC(=O)c2noc(C(C)C)c2[N+](=O)[O-])cc1`, the EC50 [20] was > 150 µM (inconclusive), the EC50 [21] was 3.18 µM (active) and the EC50 [22] was > 180 µM (inactive). For the same compound, the EC50 [23] was > 160 µM (inactive) and the IC50 [24] was > 50 µM (not active).
For `CCOC(=O)CSc1nnc(NC(=O)c2cccc([N+](=O)[O-])c2)s1`, the IC50 [25] was 43.8 µM (inactive).
For `COc1cc(NCCCn2cnc(C(=O)Nc3ccc(C)c(C)c3)n2)cc(OC)c1OC`, the IC50 [25] was > 80 µM (inactive).
In the case of `COc1ccccc1NC(=O)[C@@H]1CCCN1S(=O)(=O)c1ccc(Cl)cc1`, the IC50 [12] is reported as 6.28 µM (active), the IC50 [13] is reported as 1.21 µM (active) and the IC50 [14] is reported as > 49.7 µM (inactive). For the same compound, the IC50 [15] was > 66.2 µM (inactive), the IC50 [16] was 11 µM (inactive) and the IC50 [17] was 13.2 µM (inactive).
For `Cn1ncc(Cl)c1C(=O)NC1CCCC1`, the AC50 [8] was > 350 µM (inactive).
With `Cc1ccc(-c2c(C(=O)N/N=C/c3cccs3)nnn2-c2nonc2N)cc1` the IC50 [25] was > 80 µM (inactive).
